Values quoted from earlier work in patent publication US9682147B2, “Self-preserved oil dispersions comprising boric acid” (SANTEN SAS, priority 2012, dated 2017).
Where two headings read alike, the source gives them in different places.

Experiments:
[1] = system: corneal and epithelial cells
corneal cells = conditions: boric acid used in cleaning contact lenses solutions
[2] = solution comprising 1.2% w/w of borate

Row | Compound | Toxicity to corneal and epithelial cells ([1]; 0.5% to 1% boric acid) | Toxicity to corneal and epithelial cells ([1]; concentration of 0.1% boric acid) | Corneal cytotoxicity (corneal cells) | Antimicrobial activity [2] | Criteria for antimicrobial effectiveness given by USP [2]
1 | OB(O)O [boric acid] | toxic | safe | strong corneal cytotoxicity |  | 
2 | borate |  |  |  | some antimicrobial activity | not sufficient to meet the criteria
